# Laboratory results: ChEMBL document CHEMBL4665850, “Effect of methoxyflavones contained in Kaempferia parviflora on CRE-mediated transcription in PC12D cells” (Bioorg Med Chem Lett, 2020)
# Calls of active or inactive are those of the source. The calls are words filed in the database; no cut-off is given here.
# How the values were obtained:
# [1] = Cytotoxicity against rat PC12D cells assessed as reduction in cell viability at 30 uM by MTT assay; type: cell-based
# PC12D = test: Activation of CRE-mediated transcription in rat PC12D cells transfected with pCRE-firefly luciferase and pRL-null-renilla luciferase assessed as increase in CRE-driven firefly luciferase activity at 30 uM by dual luciferase reporter gene assay; type: functional, cell-based
# [2] = Effect on transcription in rat PC12D cells transfected with pCRE-firefly luciferase and pRL-null-renilla luciferase assessed as renilla luciferase activity at 30 uM by dual luciferase reporter gene assay; type: ADME, cell-based
Structure (SMILES),Activity [1],Activity (PC12D),Activity [2]
COc1cc(O)c2c(=O)c(OC)c(-c3ccccc3)oc2c1,Non-Toxic,inactive,Non-Toxic
COc1cc(OC)c2c(=O)c(OC)c(-c3ccc(OC)c(OC)c3)oc2c1,Non-Toxic,Active,Non-Toxic
COc1ccc(-c2oc3cc(OC)cc(O)c3c(=O)c2OC)cc1,Non-Toxic,inactive,Non-Toxic
COc1ccc(-c2cc(=O)c3c(O)cc(OC)cc3o2)cc1 [APIGENIN DIMETHYLETHER],Non-Toxic,inactive,Non-Toxic
COc1cc(OC)c2c(=O)cc(-c3ccccc3)oc2c1 [CHRYSIN DIMETHYL ETHER],Non-Toxic,Active,Toxic
COc1cc(O)c2c(=O)c(OC)c(-c3ccc(OC)c(OC)c3)oc2c1 [RETUSIN],Non-Toxic,inactive,Non-Toxic
COc1cc(O)c2c(=O)cc(-c3ccccc3)oc2c1 [TECHTOCHRYSIN],Non-Toxic,inactive,Non-Toxic
COc1cc(OC)c2c(=O)cc(-c3ccc(OC)c(OC)c3)oc2c1 [TETRAMETHYLLUTEOLIN],Non-Toxic,Active,Toxic
COc1ccc(-c2cc(=O)c3c(OC)cc(OC)cc3o2)cc1 [TRIMETHYLAPIGENIN],Non-Toxic,Active,Toxic
